According to ChEMBL document CHEMBL1759888, “Biological evaluation of polyhalo 1,3-diazaheterocycle fused isoquinolin-1(2H)-imine derivatives” (Eur J Med Chem, 2011):
Values after ≈ are worked out from the molar mass of the structure shown.

Experiments:
[1] = system: A-431; assay: Anticancer activity against human A431 cells after 72 hrs by MTT assay; details: A-431, 72 h
[2] = system: SK-OV-3; assay: Anticancer activity against human SKOV3 cells after 72 hrs by MTT assay; details: SK-OV-3, 72 h
[3] = system: HepG2; assay: Anticancer activity against human HepG2 cells after 72 hrs by MTT assay; details: HepG2, 72 h
[4] = Lipophilicity, log P of the compound; format: physicochemical; details: octanol/water
[5] = system: HL-60; assay: Anticancer activity against human HL60 cells after 48 hrs by MTT assay; details: HL-60, 48 h
[6] = system: K562; assay: Anticancer activity against human K562 cells after 48 hrs by MTT assay; details: K562, 48 h

SMILES	IC50 [1]	IC50 [2]	IC50 [3]	logP [4]	IC50 [5]	IC50 [6]
CCOC(=O)c1c2n(c(=N)c3c(F)c(C#N)c(F)c(Cl)c13)CCN2	2.2 µg/mL (≈ 6.24 µM)	0.05 µg/mL (≈ 0.142 µM)	1.5 µg/mL (≈ 4.25 µM)	2.68	0.003 µg/mL (≈ 0.00851 µM)	0.0008 µg/mL (≈ 0.00227 µM)
CC(=O)c1c2n(c(=N)c3c(Cl)c(C#N)c(Cl)c(Cl)c13)CCN2	308 µg/mL (≈ 866 µM)	78.4 µg/mL (≈ 220 µM)	503 µg/mL (≈ 1410 µM)	2.43	4.7 µg/mL (≈ 13.2 µM)	3.6 µg/mL (≈ 10.1 µM)
COc1ccc(C(=O)c2c3n(c(=N)c4c(Cl)c(C#N)c(Cl)c(Cl)c24)CCO3)cc1	11 µg/mL (≈ 24.5 µM)	32.2 µg/mL (≈ 71.8 µM)	2.7 µg/mL (≈ 6.02 µM)	3.39	24.2 µg/mL (≈ 53.9 µM)	0.8 µg/mL (≈ 1.78 µM)
N#Cc1c(F)c(Cl)c2c(C(=O)c3ccc(Cl)cc3)c3n(c(=N)c2c1F)CCN3	5 µg/mL (≈ 11.9 µM)	34.9 µg/mL (≈ 83.3 µM)	12.4 µg/mL (≈ 29.6 µM)	4	0.3 µg/mL (≈ 0.716 µM)	1.4 µg/mL (≈ 3.34 µM)
COc1ccc(C(=O)c2c3n(c(=N)c4c(F)c(C#N)c(F)c(F)c24)CCO3)cc1	1.5 µg/mL (≈ 3.76 µM)	0.2 µg/mL (≈ 0.501 µM)	0.5 µg/mL (≈ 1.25 µM)	2.57	0.1 µg/mL (≈ 0.25 µM)	1.8 µg/mL (≈ 4.51 µM)
N#Cc1c(F)c(F)c2c(C(=O)c3ccccc3)c3n(c(=N)c2c1F)CCO3	0.3 µg/mL (≈ 0.812 µM)	0.2 µg/mL (≈ 0.542 µM)	0.1 µg/mL (≈ 0.271 µM)	2.57	0.008 µg/mL (≈ 0.0217 µM)	0.0002 µg/mL (≈ 0.000542 µM)
N#Cc1c(F)c(F)c2c(C(=O)c3ccc(Cl)cc3)c3n(c(=N)c2c1F)CCCN3	4.3 µg/mL (≈ 10.3 µM)	15.1 µg/mL (≈ 36.2 µM)	8.4 µg/mL (≈ 20.2 µM)	3.44	4.7 µg/mL (≈ 11.3 µM)	0.5 µg/mL (≈ 1.2 µM)
N#Cc1c(F)c(Cl)c2c(C(=O)c3ccccc3)c3n(c(=N)c2c1F)CCN3	4.8 µg/mL (≈ 12.5 µM)	5.8 µg/mL (≈ 15.1 µM)	0.3 µg/mL (≈ 0.78 µM)	3.27	0.1 µg/mL (≈ 0.26 µM)	0.4 µg/mL (≈ 1.04 µM)
COc1ccc(C(=O)c2c3n(c(=N)c4c(F)c(C#N)c(F)c(Cl)c24)CCN3)cc1	1.9 µg/mL (≈ 4.58 µM)		1.2 µg/mL (≈ 2.89 µM)	3.26	0.2 µg/mL (≈ 0.482 µM)	0.3 µg/mL (≈ 0.723 µM)
COc1ccc(C(=O)c2c3n(c(=N)c4c(F)c(C#N)c(F)c(F)c24)CCN3)cc1	7.5 µg/mL (≈ 18.8 µM)		0.9 µg/mL (≈ 2.26 µM)	2.62	0.5 µg/mL (≈ 1.26 µM)	0.4 µg/mL (≈ 1 µM)

Next, values leading:

IC50 [1]	IC50 [2]	IC50 [3]	logP [4]	IC50 [5]	IC50 [6]	SMILES
2 µg/mL (≈ 4.66 µM)	26.8 µg/mL (≈ 62.5 µM)	0.8 µg/mL (≈ 1.87 µM)	3.34	0.5 µg/mL (≈ 1.17 µM)	0.07 µg/mL (≈ 0.163 µM)	COc1ccc(C(=O)c2c3n(c(=N)c4c(F)c(C#N)c(F)c(Cl)c24)CCCN3)cc1
8 µg/mL (≈ 17.2 µM)	52.2 µg/mL (≈ 112 µM)	30 µg/mL (≈ 64.4 µM)	4.84	4.4 µg/mL (≈ 9.44 µM)	1.2 µg/mL (≈ 2.57 µM)	N#Cc1c(Cl)c(Cl)c2c(C(=O)c3ccc(Cl)cc3)c3n(c(=N)c2c1Cl)CCCN3
2.1 µg/mL (≈ 5.3 µM)	33.9 µg/mL (≈ 85.5 µM)	2.4 µg/mL (≈ 6.05 µM)	3.21	4.7 µg/mL (≈ 11.9 µM)	0.7 µg/mL (≈ 1.77 µM)	Cc1ccc(C(=O)c2c3n(c(=N)c4c(F)c(C#N)c(F)c(F)c24)CCCN3)cc1
56.9 µg/mL (≈ 123 µM)	67.2 µg/mL (≈ 146 µM)	400 µg/mL (≈ 866 µM)	4.1	4.4 µg/mL (≈ 9.53 µM)	1.4 µg/mL (≈ 3.03 µM)	COc1ccc(C(=O)c2c3n(c(=N)c4c(Cl)c(C#N)c(Cl)c(Cl)c24)CCCN3)cc1
2.8 µg/mL (≈ 6.46 µM)	17.1 µg/mL (≈ 39.5 µM)	2.1 µg/mL (≈ 4.85 µM)	4.08	0.2 µg/mL (≈ 0.462 µM)	0.3 µg/mL (≈ 0.692 µM)	N#Cc1c(F)c(Cl)c2c(C(=O)c3ccc(Cl)cc3)c3n(c(=N)c2c1F)CCCN3
20.3 µg/mL (≈ 44.9 µM)	31.4 µg/mL (≈ 69.4 µM)	37.6 µg/mL (≈ 83.2 µM)	4.76	2.6 µg/mL (≈ 5.75 µM)	2.4 µg/mL (≈ 5.31 µM)	N#Cc1c(Cl)c(Cl)c2c(C(=O)c3ccc(Cl)cc3)c3n(c(=N)c2c1Cl)CCN3
2.1 µg/mL (≈ 4.69 µM)		11.3 µg/mL (≈ 25.2 µM)	4.02	0.3 µg/mL (≈ 0.67 µM)	0.7 µg/mL (≈ 1.56 µM)	COc1ccc(C(=O)c2c3n(c(=N)c4c(Cl)c(C#N)c(Cl)c(Cl)c24)CCN3)cc1
> 1000 µg/mL	826 µg/mL (≈ 1850 µM)	277 µg/mL (≈ 621 µM)	4.61	58.2 µg/mL (≈ 131 µM)	9.3 µg/mL (≈ 20.9 µM)	Cc1ccc(C(=O)c2c3n(c(=N)c4c(Cl)c(C#N)c(Cl)c(Cl)c24)CCCN3)cc1
